# Experimental data from patent US20250369032A1 (priority 2023, published 2025).
# Several values for one entry are separate records, joined by “and”; a condition that tells them apart may be missing. Identical values can stand only once. Like-named read-outs stand apart in the source and are kept apart here.
# Key:
# alkaline phosphatase [1] = target: T1, alkaline phosphatase (Bos taurus, UniProt P19111)
# Experimental: Two different dosing concentrations were evaluated, 10 μL of test chemical added to 90 μL of alkaline phosphatase reaction reagent and 50 μL of test chemical added to 50 μL of alkaline phosphatase reaction reagent; all aliquoted in 96-well plates.
# • 1. Alkaline phosphatase reaction reagent (fresh, 1:100) • a. Take 4 mL of AP (1:10) stock solution, add to 36 mL PBS. Vortex mix and then invert to mix 10 times • 2. Prepare alkaline phosphatase reaction reagent for every condition • a. 200 μL AP (1:10) in 1.8 mL PBS • b. […] 200 μL AP (1:10) in 1.8 mL Acetone • 3. Prepare 96-well plates for dosing • 4. Prepare 96-well plates for PNPP reading (3 wells for each test chemical) • a. Aliquot with 200 μL PNPP
# • 1. Set 1 • a. 10 μL chemical added to 90 μL AP reaction reagent • 2. Set 2 • a. 50 μL chemical added to 50 μL AP reaction reagent • 3. Incubate for 3 hours • a. To the prepared 96-well plate with 200 μL PNPP aliquoted, add 20 μL • b. […] To the prepared 96-well plate with 200 μL PNPP aliquoted, add 20 μL • b.
# In our next study, we focused on ethanol and buffered saline (potassium chloride, potassium phosphate monobasic, sodium chloride, sodium phosphate dibasic) as our solvents.
# • 1. Alkaline phosphatase reaction reagent • a. 1:100 • i. PBS: Take 400 μL of AP (1:10) stock solution, add to 3.6 mL PBS. Vortex mix and then invert to mix 10 times • ii. […] Vortex mix and then invert to mix 10 times • b. 1:1000 • i. PBS: Take 400 μL of AP (1:100) stock solution, add to 3.6 mL PBS. Vortex mix and then invert to mix 10 times • ii. […] Vortex mix and then invert to mix 10 times • 2. Prepare 0.5 mL microcentrifuge tubes for dosing • a. One set for room temperature, one set for 37° C. • 3. Prepare 96-well plates for PNPP reading (3 wells for each test chemical) • a. Aliquot with 200 μL PNPP
# • 1. In each microcentrifuge tube for each condition, add 180 μL of the corresponding AP reaction reagent • 2. Add 20 μL of the test chemical to each microcentrifuge tube • 3. Incubate for 4 hours (one set at room temperature; one set at 37° C.) • 4. To prepared 96-well plates with 200 μL PNPP aliquoted, add 20 μL of each microcentrifuge tube to the corresponding well • 5.
# skin = details: cited from earlier work
# alkaline phosphatase [2] = target: T1, alkaline phosphatase; format: biochemical; set-up: purchased Sigma Aldrich, St. Louis, MO P0114 (original source); P7640 (second source, 'new AP' condition only)
# [3] = test system: endogenous skin phosphatase; format: biochemical, porcine; details: optical density compared to the naïve condition
# Experimental: Our next studies involved applying the test substance (500 μL) directly to the epidermis side of previously frozen porcine skin (Spear Products, Coopersburg, PA) that is placed in a holder that only exposes the epidermis side for 30 minutes, adding phosphate buffered saline (PBS) with added sodium azide (metabolic inhibitor that ensure no viable tissue), then aliquoting into cuvettes to read at an optical density of 300 nm. […] So, at the end of the initial studies described above, almost out of frustration, we tried to probe for released phosphatase activity using p-Nitrophenyl phosphate disodium salt (PNPP; Sigma Aldrich, St. Louis, MO) substrate solution to detect any presence of phosphatase.
# • 1. Thaw 2 pieces of frozen porcine skin • a. Punch out as many skin discs and mount in holders • 2. Label cuvettes (3 for each chemical)
# • 1. Add 500 μL of test chemical to holder; incubate at room temperate for 30 minutes • 2. After 30 minutes, add 2 mL of PBS-Azide to both the holder containing the test chemical; forcefully pipette and re-pipette 10 times • 3. From the holder, aliquot 400 μL into 3 cuvettes; forcefully pipette and re-pipette 3 times before dispensing into cuvettes
# Skin corrosion by GHS Category 1 dermal corrosive chemicals results in the disintegration of the epidermis into the dermis.
# alkaline phosphatase [4] = target: T1, alkaline phosphatase; format: biochemical; set-up: purchased Sigma Aldrich, St. Louis, MO P0114 (original source); P7640 (second source, 'new AP' condition only); remark: listed apart in the source
# From the text: Our next study focused on an in vitro method of detecting the potential of dermal corrosives to inhibit nonspecific phosphatases that may be released from the skin. We decided to test pure […] instead of relying on endogenous skin phosphatase. Alkaline phosphatase (Sigma Aldrich, St. Louis, MO) was purchased and suspended to make the reaction reagent (10,000 units). […] We note that the ratio used was 0.1 g/ml or 10% chemical-which is far in excess of any pharmaceutical applications. We further note that pharmaceutical enzyme inhibition tests, studies an use involve highly specific active site binding and these assays are conducted at ratios of micrograms-femtograms per ml. These studies are done at these ranges because these are the realistic concentrations for drug applications and therapeutics. […] So when a 50 Kg human consumes the tables, the tissues will be exposed at a 5 mg/50 kg=0.1 mg/kg=0.0000001 g/ml.
# Next two quantitative methods were evaluated: 1) using the discs parts from our OptiSafe™ test method and 2) directly into the 24-well plate.
# • 1. Alkaline phosphatase reaction reagent • a. Take 1 vial of AP, add 1 mL of PBS, mix by pipette/re-pipette 10 times • b. To a 50 mL conical tube, add 1 mL of the AP solution prepared above and 40 mL of PBS • 2. Prepare two 24-well plates (1 with discs, 1 without discs) • 3. […] Aliquot 200 μL PNPP and PBS
# • 1. Plate 1 (No Discs) • a. Add 1.25 mL from the prepared PBS-AP conical tube to each well (11 wells) • b. Add 100 μL of the test material to the well, mix with the same pipette tip, dispose and repeat for the rest of the test materials • c. Wrap the plate in saran wrap and place into the container • 2. Plate 2 (Discs) • a. Configure the 11 discs in the plate so the plate cover is stable • b. Add 1.25 mL from the prepared PBS-AP conical tube to each well (11 wells) • c. Add 100 μL of the test material to the center of the disc and repeat for the rest of the test materials • d. Put the plate cover on and place into the container • 3. […] Incubate for 1 hour
# For the new study, the alkaline phosphatase was suspended in phosphate buffered saline (PBS) to make the reaction reagent. Then, 100 μL of the test chemical is added directly into the corresponding wells on a 24-well plate with 1.25 mL of alkaline phosphatase reaction reagent already aliquoted.
# • 1. Alkaline phosphatase reaction reagent • a. Take 1 vial of AP, add 1 mL of PBS, mix by pipette/re-pipette 10 times • b. To a 50 mL conical tube, add 1 mL of the AP solution prepared above and 40 mL of PBS • 2. Prepare two 24-well plates • 3. […] Aliquot with 200 μL PNPP and PBS • 4. Prepare glass vials Repeat Procedure from Jan. […] 24-well plate • a. Add 1.25 mL from the prepared PBS-AP conical tube to each well (11 wells) • b. Add 100 μL of the test material to the well, mix with the same pipette tip, dispose and repeat for the rest of the test materials • c. Wrap the plate in saran wrap and place into the container • 2. […] To the prepared 96-well plate with 200 μL PNPP or PBS, add 20 μL from the 24-well plate • 4. Incubate for 1 hour • 5.
# • 1. 24-well plate • a. Add 1.25 mL from the prepared PBS-AP conical tube to each well (11 wells) • b. Add 100 μL of the test material to the well, mix with the same pipette tip, dispose and repeat for the rest of the test materials • c. After 10 minutes, mix each well • 2.
# [5] = 4 mL glass vials, 30 μL into 300 μL, 1:100, 4 hours room temperature, 3 mL PNPP 1 hour
# [6] = skin, chemical lists of the protocols
# [7] = 1:100, 20 μL into 180 μL, 0.5 mL microcentrifuge tubes, 4 hours RT, PNPP 60 min, 405 nm
# [8] = average of R1-R3, 1:100, 20 μL into 180 μL, 4 hours RT, PNPP 60 min, 405 nm
# [9] = original alkaline phosphatase 1:1, 18 hours room temperature
# [10] = original alkaline phosphatase 1:100 (100 units), 100 μL into 1 mL, 18 hours room temperature, PNPP 1 hour
# T1 sequence (P19111 20-506): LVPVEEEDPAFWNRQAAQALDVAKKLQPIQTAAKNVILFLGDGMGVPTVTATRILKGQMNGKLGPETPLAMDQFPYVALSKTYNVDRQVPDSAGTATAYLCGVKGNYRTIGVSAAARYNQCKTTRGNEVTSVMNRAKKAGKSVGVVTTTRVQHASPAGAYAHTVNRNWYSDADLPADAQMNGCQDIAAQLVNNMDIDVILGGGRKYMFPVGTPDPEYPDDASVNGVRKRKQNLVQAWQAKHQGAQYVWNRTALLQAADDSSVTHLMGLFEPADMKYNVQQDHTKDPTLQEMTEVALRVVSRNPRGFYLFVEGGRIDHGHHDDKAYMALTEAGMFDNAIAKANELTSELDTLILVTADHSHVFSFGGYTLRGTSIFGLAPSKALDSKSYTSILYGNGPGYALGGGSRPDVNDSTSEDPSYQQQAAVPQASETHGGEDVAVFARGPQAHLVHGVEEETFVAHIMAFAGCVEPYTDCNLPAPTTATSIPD
SMILES,OD405 readings (FIG. 11D) (alkaline phosphatase [1]; [5]),in vivo GHS (skin; [6]),A1-Results R1 (alkaline phosphatase [2]; [7]),A1-Results R3 (alkaline phosphatase [2]; [7]),OD405 readings (FIG. 11B) (alkaline phosphatase [2]; [5]),A1-Results AVG (alkaline phosphatase [2]; [8]),prediction based on OD405 values (FIG. 6B) (alkaline phosphatase [2]; [9]),OD405 readings (FIG. 6D) (alkaline phosphatase [2]; [10]),further results
CC(C)N(C)C [Dimethylisopropylamine],2.926 and 2.922 and 2.852,Cat. 1B/1C,3.423,3.485,3.354 and 3.466 and 3.502,3.458,incorrectly predicted,3.466 and 3.502,
NCCO [Ethanolamine],,,,,,,,,"percent of phosphatase measured (first reading) [3]: 20.1%; percent of phosphatase measured (second reading) [3]: 19.6%; percent of phosphatase measured, average [3]: 19.9%; Corrosive (skin; rabbit, in vivo): Yes; optical density readings (FIG. 3B) (alkaline phosphatase [4]): 0.174 and 0.185 and 0.175; optical density readings (FIG. 3A) (alkaline phosphatase [2]): 0.170 and 0.166 and 0.172"
"CN(C)Cc1ccccc1 [N,N-Dimethylbenzylamine]",,,,,,,,,OD405 reading (FIG. 9B) (alkaline phosphatase [1]): 0.587; OD405 readings (FIG. 11D) (alkaline phosphatase [1]): 3.429 and 3.249 and 3.164; A1-Results AVG (alkaline phosphatase [2]): 3.240; A1-Results R1 (alkaline phosphatase [2]): 3.265; A1-Results R3 (alkaline phosphatase [2]): 3.230; OD405 readings (FIG. 6D) (alkaline phosphatase [2]): 3.431 and 3.502 and 3.61; OD405 readings (FIG. 11B) (alkaline phosphatase [2]): 3.360 and 3.238 and 3.273; prediction based on OD405 values (FIG. 6B) (alkaline phosphatase [2]): incorrectly predicted
CCCCCCCCC=O [Nonyl aldehyde],,"Cat. 2 (Category 2 (irritation; mean score of ≥2.3 and ≤4.0 for erythema/eschar or for oedema in at least 2 of 3 tested animals at 24, 48, and 72 hours or inflammation that persists to the end of 14 days))",3.393,3.050,,3.296,,,OD405 reading (FIG. 7A) (alkaline phosphatase [1]): 1.589; OD405 reading (FIG. 7B) (alkaline phosphatase [1]): 3.078
CCCCCCCC(=O)O [Octanoic Acid],3.283 and 3.408 and 3.220,,0.741,0.860,1.427 and 1.415 and 1.416,0.797,incorrectly predicted,3.462 and 3.491 and 3.333,"in vivo GHS (skin; rabbit, in vivo): Cat. 1B/1C"
[K+].[OH-] [Potassium hydroxide (10%)],,Cat. 1B (Category 1B (corrosive responses in at least one animal during exposure period of ≤1 hour)),0.118,0.112,,0.114,,,"prediction based on OD405 values (FIG. 6D) (alkaline phosphatase [4]; original alkaline phosphatase 1:100 dilution): correctly predicted; optical density readings (FIG. 4) (alkaline phosphatase [4]; repeat, without discs, 18 hours 37° C., PNPP 1 hour, 405 nm): 0.123 and 0.124"
